Experiments:
MDR1 (human) = experiment: Apparent permeability of the compound across pig LLC-PK1 cells expressing human MDR1; type: ADME, cell-based, Sus scrofa
[1] = Clearance in human liver microsomes at 1 uM after 20 mins in presence of NADPH; type: ADME

Structure (SMILES)	Papp (MDR1 (human)) [×10⁻⁶ cm/s]	CLhep predicted at 1 µM [1] [mL/min/kg]
N#Cc1cccc(-c2ccc3c(c2)[C@@]2(COC(N)=N2)[C@@H]2CCOC[C@H]2O3)c1	11	8
NC1=N[C@@]2(CO1)c1cc(-c3cc(F)cc(Cl)c3)ccc1O[C@@H]1COCC[C@H]12	11	10
C[C@]12COCC[C@@H]1[C@]1(COC(N)=N1)c1cc(-c3cncc(Cl)c3)ccc1O2 (racemic)	10	15
NC1=N[C@@]2(CO1)c1cc(-c3cccnc3F)ccc1O[C@@H]1COCC[C@H]12	10	6
NC1=N[C@@]2(CO1)c1cc(-c3cncc(Cl)c3)ccc1O[C@H]1COCC[C@@H]12	4.7	15
NC1=N[C@@]2(CO1)c1cc(-c3cncc(F)c3)ccc1O[C@@H]1COCC[C@H]12	15	9
NC1=N[C@@]2(CO1)c1cc(-c3cncc(Cl)c3)ccc1O[C@@H]1COCC[C@H]12	14	13
